Test results as given in US10604489B2, “Compounds for the treatment of pain” (priority 2018, dated 2020).

Tests used:
Male Sprague-Dawley rats [1] = details: maximum pCO2 within 2 hours of administration, subcutaneous, rat
human μ opioid receptor = human μ opioid receptor (Homo sapiens (Human), UniProt P35372); assay: Alternate functional activity ([35S]GTPγS binding) assay, SPA beads; format: biochemical; details: alternate assay: [35S]GTPγS 0.020 nM, CHO cell membranes with WGA PVT SPA beads
μ-receptor = μ-receptor (Homo sapiens (Human), UniProt P35372); assay: Alternate receptor binding assay, competitive displacement of [3H]DAMGO; details: alternate assay: 0.8 nM [3H]DAMGO, 5 mM MgCl2, CHO cell membrane protein, 120 min
Male Sprague-Dawley rats [2] = assay: animal or person; format: in vivo, rat; details: sc; minimum dose at which maximal reversal of hind paw weight bearing (50±0.5%) was achieved; subcutaneous administration; rat; read-out: MEMD SC CFA

SMILES: CCOC1(c2cccc(C(N)=O)c2)C2CCCC1CNC2.Cl [Compound 160, 3-((1R,5S,9r)-9-ethoxy-3-azabicyclo[3.3.1]nonan-9-yl)benzamide]
- <60 mmHg @ 10X CFA MEMD (Male Sprague-Dawley rats [1]; dose 10× CFA MEMD): + (resulted in a maximum pCO2 value of less than 60 mmHg within 2 hours of administration)
- <60 mmHg @ 100X CFA MEMD (Male Sprague-Dawley rats [1]; dose 100× CFA MEMD): + (resulted in a maximum pCO2 value of less than 60 mmHg within 2 hours of administration)
- EC50 (human μ opioid receptor): 10 to 75 nM
- Ki (μ-receptor): 1 to 5 nM
- minimal effective dose (Male Sprague-Dawley rats [2]): 0.1 mg/kg
